Data taken from ChEMBL document CHEMBL1151451 (Antimicrob Agents Chemother, 2007).
In brackets after ≈: the same amount, converted by molar mass.

Legend:
[1] = tested on: Mycobacterium tuberculosis; assay type: functional
[2] = Drug level in CD-1 mouse serum at […] administered through gavage after 24 hrs; assay type: ADME; settings: po, read-out: Drug uptake
[3] = tested on: Mycobacterium tuberculosis; assay type: functional; remark: listed apart in the source
[4] = AUC in human at 400 mg, po; assay type: ADME, organism-based; settings: plasma
[5] = tested on: Mycobacterium tuberculosis; test: Antimicrobial activity against avirulent Mycobacterium tuberculosis H37Ra
[6] = tested on: Mycobacterium tuberculosis; test: Antimicrobial activity against Mycobacterium tuberculosis H37Rv infected in CD-1 mouse lung; assay type: functional
[7] = tested on: Mycobacterium tuberculosis; test: Antimicrobial activity against Mycobacterium tuberculosis H37Rv infected in CD-1 mouse lung at 75 mg/kg administered through gavage; assay type: functional
[8] = AUC (0 to 24 hrs) in CD-1 mouse at […] administered through gavage; assay type: ADME, organism-based; settings: plasma, po

Q: What does the source list for `COc1c(N2C[C@@H]3CCCN[C@@H]3C2)c(F)cc2c(=O)c(C(=O)O)cn(C3CC3)c12` [MOXIFLOXACIN]?
A: log10cfu [1]: 8.61; concentration at 24 h [2]: 8000 ng/mL; log10cfu [3]: 3.48; AUC [4]: 26900 ng·h/mL; MIC [5]: 0.25 µg/mL (≈ 0.623 µM); log10cfu [6]: 7.87; log10cfu [7]: 0.93; AUC(0-t) [8]: 27400 ng·h/mL
